Test results published in the Kinase Knowledgebase extract (Sharma et al. 2016).
Several values for one entry are separate records, joined by “and”; a condition that tells them apart may be missing. Equal entries are not always repeated.

How the values were obtained:
[1] = target: EGFR (human) (UniProt P00533); details: HN5
[2] = target: EGFR (human) (UniProt P00533); details: hn5
[3] = target: EGFR (human) (UniProt P00533); details: a431
[4] = target: EGFR (human) (UniProt P00533); details: caski
[5] = target: EGFR (human) (UniProt P00533); details: siha

Sequence of EGFR (human) (P00533 whole entry, looked up): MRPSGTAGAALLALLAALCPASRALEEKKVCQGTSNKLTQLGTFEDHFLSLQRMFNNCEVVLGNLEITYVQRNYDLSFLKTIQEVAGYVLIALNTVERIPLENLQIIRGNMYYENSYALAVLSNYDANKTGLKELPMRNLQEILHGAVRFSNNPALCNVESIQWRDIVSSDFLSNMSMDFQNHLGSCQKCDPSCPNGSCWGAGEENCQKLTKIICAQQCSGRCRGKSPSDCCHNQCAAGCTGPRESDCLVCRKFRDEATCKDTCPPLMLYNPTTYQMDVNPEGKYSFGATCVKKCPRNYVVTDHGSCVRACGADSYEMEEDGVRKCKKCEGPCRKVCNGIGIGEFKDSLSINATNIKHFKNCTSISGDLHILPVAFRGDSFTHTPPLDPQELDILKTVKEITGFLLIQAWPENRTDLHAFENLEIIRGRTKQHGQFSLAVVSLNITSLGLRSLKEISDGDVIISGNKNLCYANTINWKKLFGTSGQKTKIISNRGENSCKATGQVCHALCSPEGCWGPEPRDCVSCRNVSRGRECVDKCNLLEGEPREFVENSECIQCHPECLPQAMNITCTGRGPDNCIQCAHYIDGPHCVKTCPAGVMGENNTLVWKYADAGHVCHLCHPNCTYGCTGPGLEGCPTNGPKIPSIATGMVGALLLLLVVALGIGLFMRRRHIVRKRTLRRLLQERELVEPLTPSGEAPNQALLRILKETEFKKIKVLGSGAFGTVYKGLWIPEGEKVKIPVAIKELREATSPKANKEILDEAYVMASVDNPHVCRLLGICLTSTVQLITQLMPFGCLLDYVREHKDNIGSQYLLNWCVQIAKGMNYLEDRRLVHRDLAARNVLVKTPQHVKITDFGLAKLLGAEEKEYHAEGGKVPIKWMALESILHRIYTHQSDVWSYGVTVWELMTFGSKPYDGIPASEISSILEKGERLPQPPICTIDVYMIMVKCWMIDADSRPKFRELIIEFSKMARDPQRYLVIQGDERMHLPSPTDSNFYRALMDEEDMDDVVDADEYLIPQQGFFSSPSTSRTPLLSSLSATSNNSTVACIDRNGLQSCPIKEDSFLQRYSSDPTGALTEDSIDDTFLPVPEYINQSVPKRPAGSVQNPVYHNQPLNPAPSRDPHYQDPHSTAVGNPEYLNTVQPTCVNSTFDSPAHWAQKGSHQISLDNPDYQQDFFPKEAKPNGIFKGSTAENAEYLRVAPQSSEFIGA

| Compound | IC50 [1] | IC50 [2] | IC50 [3] | IC50 [4] | IC50 [5] |
| --- | --- | --- | --- | --- | --- |
| CCCCOC(=O)/C(C#N)=C/c1ccc([N+](=O)[O-])s1 | > 500 µM | – | – | – | – |
| N#C/C(=C\c1ccc([N+](=O)[O-])s1)C(N)=S | 37.5 µM | 66.9 µM | 71.6 µM | 82.9 µM | 82.1 µM |
| CCOC(=O)/C(C#N)=C/c1ccsc1[N+](=O)[O-] | 100 µM | – | – | – | – |
| N#CC(C#N)=Cc1cc([N+](=O)[O-])cs1 | 2 µM | – | – | – | – |
| N#C/C(=C\c1cc([N+](=O)[O-])cs1)C(N)=S | > 500 µM | – | – | – | – |
| CCCCOC(=O)/C(C#N)=C/c1cc([N+](=O)[O-])cs1 | > 500 µM | – | – | – | – |
| N#C/C(=C\c1ccsc1[N+](=O)[O-])C(N)=S | 22.6 µM | 0.27 µM | 0.11 µM | 0.32 µM | 0.35 µM |
| N#CC(C#N)=C(N)/C(C#N)=C/c1ccsc1[N+](=O)[O-] | 14.6 µM | 5.1 µM | 4.73 µM | 4.7 µM | 7.8 µM |
| CCOC(=O)/C(C#N)=C/c1csc([N+](=O)[O-])c1 | 9 µM | > 100 µM | > 100 µM | > 100 µM | > 100 µM |
| N#CC(C#N)=C(N)/C(C#N)=C/c1csc([N+](=O)[O-])c1 | 7 µM | > 100 µM | > 100 µM | > 100 µM | > 100 µM |
| CC(C)(C)OC(=O)/C(C#N)=C/c1ccsc1[N+](=O)[O-] | 9 µM | – | – | – | – |
| N#C/C(=C\c1ccc([N+](=O)[O-])s1)C(N)=O | > 500 µM | – | – | – | – |
| CCCCOC(=O)/C(C#N)=C/c1ccsc1[N+](=O)[O-] | > 500 µM | – | – | – | – |
| N#CC(C#N)=Cc1ccsc1[N+](=O)[O-] | 15.3 µM | – | – | – | – |
| COC(=O)/C(C#N)=C/c1csc([N+](=O)[O-])c1 | > 500 µM | – | – | – | – |
| COC(=O)/C(C#N)=C/c1cc([N+](=O)[O-])cs1 | 18 µM | – | – | – | – |
| COC(=O)/C(C#N)=C/c1ccc([N+](=O)[O-])s1 | > 500 µM | – | – | – | – |
| N#C/C(=C\c1ccc([N+](=O)[O-])s1)C(=O)O | 150 µM and > 500 µM | – | – | – | – |
| CCCCOC(=O)/C(C#N)=C/c1csc([N+](=O)[O-])c1 | > 500 µM | – | – | – | – |
| N#CC(C#N)=Cc1ccc([N+](=O)[O-])s1 | 50 µM | 20.7 µM | 28 µM | 25.8 µM | 25.4 µM |
| CC(C)(C)OC(=O)/C(C#N)=C/c1csc([N+](=O)[O-])c1 | 150 µM | – | – | – | – |
| N#C/C(=C\c1cc([N+](=O)[O-])cs1)C(N)=O | 47 µM | – | – | – | – |
| N#C/C(=C\c1csc([N+](=O)[O-])c1)C(N)=S | 10.5 µM | – | – | – | – |
| N#C/C(=C\c1csc([N+](=O)[O-])c1)C(N)=O | > 500 µM | – | – | – | – |
| N#C/C(=C\c1csc([N+](=O)[O-])c1)C(=O)O | > 500 µM | – | – | – | – |
| N#CC(C#N)=C(N)/C(C#N)=C/c1cc([N+](=O)[O-])cs1 | 160 µM | – | – | – | – |
| CC(C)(C)OC(=O)/C(C#N)=C/c1ccc([N+](=O)[O-])s1 | 75 µM | – | – | – | – |
| CCOC(=O)/C(C#N)=C/c1cc([N+](=O)[O-])cs1 | > 500 µM | – | – | – | – |
| N#C/C(=C\c1ccsc1[N+](=O)[O-])C(N)=O | 400 µM | – | – | – | – |
| COC(=O)/C(C#N)=C/c1ccsc1[N+](=O)[O-] | 50 µM | – | – | – | – |
